Consider 7 compounds from US20080010691A1, “Method of Screening Therapeutic Agent for Irritable Bowel Syndrome” (priority 2005, published 2008).

Structures can show the parent of a compound that is named as a salt. Marks after values point to notes of the source that are not given here.

In assay [1] the test system is conditioned fear stressed animal model (abnormal evacuation). The assay can be described thus: Conditioned fear stress (CFS)-induced abnormal evacuation, wet feces weight. The following applies: oral administration 1 hour before CFS loading; 30 minutes CFS; linear regression, n=12. The class given is in vivo, rat. The source says: (§1) Male Sprague-Dawley rats (6 weeks of age, CLEA Japan) were used. The rats which passed 1 week or more after their receipt were divided into groups of 12 animals per group in such a manner that their average values and standard deviations of body weight became almost the same. The electric shock conditions were set in accordance with the results of preliminary examinations. That is, the rats were put into an electric shock device (17×17×39 cm, CB 2000 type, O'Hara) having an electrode set in the floor, and after 3 seconds of warning sound, their conditioning was carried out by applying an electric current of 2 mA at the maximum for 5 seconds per once per minute, a total of 15 times, and irradiating light at the time of the electric shock using 3 electric bulbs of 40 w. The control group was put into the electric shock device by the same protocol, but without applying the electric shock. From 18 to 24 hours thereafter, each drug to be tested was orally administered to each animal by force at a dose of 5 mL/kg, they were again put into the electric shock device 1 hour thereafter, and then a conditioned fear stress (CFS) loading was carried out by applying 3 seconds of warning sound and subsequent 5 seconds of light irradiation for 30 minutes.
The number of evacuations was recorded after 2, 4, 6, 8, 10, 15, 20, 25 and 30 minutes of the commencement of the CFS loading, and wet weights of feces were measured by recovering the feces at the time of the completion of the measurement. In addition, the feces were dried at 70° C. for 22 hours and then their dry weights were measured to calculate the moisture content. In this connection, the evacuations just after putting them into the measuring device were excluded from the measured values of the number of evacuations and feces weights.

Assay [2] deals with conditioned fear stressed animal model (freezing behavior). Nature of the assay: CFS-induced freezing behavior. The class given is in vivo, rat. The following applies: oral; for influence upon CFS-induced freezing behavior: 30 minutes observation after CFS loading, all of the doses tested.
Text: as §1
Regarding the measurement of freezing behavior (freezing), a case of not moving at all during 30 seconds other than the movement accompanied by breathing was evaluated as the freezing behavior. The evaluation times were set to 0, 1, 3, 5, 7, 9, 12, 13, 14, 17, 18, 19, 22, 23, 24, 27, 28 and 29 minutes after the CFS loading, and the measurement was carried out at intervals of 30 seconds per minute. The ratio (%) of showing the freezing behavior by each animal was calculated in 3 plots of from 0 to 9 minutes (Block 1), from 10 to 19 minutes (Block 2) and from 20 to 29 minutes (Block 3) after the loading.

Assay [3] concerns conditioned fear stressed animal model (proximal large intestine transport). The assay can be described thus: Proximal large intestine transport ability by marker method after CFS loading. The class given is in vivo, rat. The following applies: 30 minutes after CFS loading. The procedure: (§2) Male Sprague-Dawley rats (6 to 7 weeks of age, CLEA Japan) were used. The rats which passed about 1 week after their receipt were used in the test. The electric shock conditions were set in accordance with Example 1. That is, the rats were put into an electric shock device (17×17×39 cm, CB 2000 type, O'Hara) having an electrode set in the floor, and after 3 seconds of warning sound, their conditioning was carried out by applying an electric current of 2.5 mA for 5 seconds per minute per once, a total of 15 times, and irradiating light at the time of the electric shock using 3 electric bulbs of 40 w. The normal group was put into the electric shock device by the same protocol, but without applying the electric shock. From 20 to 24 hours thereafter, each drug to be tested was orally administered to each animal by force at a dose of 5 mL/kg, they were again put into the electric shock device 1 hour thereafter, and then a conditioned fear stress (CFS) loading was carried out by applying 3 seconds of warning sound and subsequent 5 seconds of light irradiation for 30 minutes.
Measurement of proximal large intestine transport ability by a marker method was carried out by modifying the method of Kadowaki et al. (Journal of Pharmacology and Experimental Therapeutics, 1993, vol. 266, p. 74-80). That is, abdominal part of each rat was subjected to median incision (about 1 cm) under pentobarbital (50 mg/kg ip) anesthesia, and the ileocecal junction was extracted. A large intestinal part of about 1 cm from the connecting part was extracted from the neck by inserting canula (SP 50). The animals were individually reared for 5 days until the test, under conditions of free ingestion and free drinking. A Carmine Red solution (0.2 mL of 0.5% methyl cellulose solution containing 3 g of Carmine Red and 5 g of acacia) was injected trough the canula, CFS was loaded for 30 minutes by the aforementioned method, and then the animals were sacrificed by a decapitation device. By quickly carrying out median incision, large intestine starting part-anus part was extracted, and the whole length and marker shifting distance were measured using the canula insertion part as the starting point. The large intestine transport ability (%) was calculated as (marker shifting distance)÷(whole length)×100.

For assay [4], the system named is conditioned fear stressed animal model (distal large intestine transport). Nature of the assay: Distal large intestine transport ability by beads discharge method after CFS loading. Format: in vivo, rat. The following applies: control group 13.70, normal group 0.38. The procedure:
as §2, with “test by 12 animals per group.” for “test.”
Measurement of large intestine transport ability by a beads discharge method was carried out by modifying the method of Negri et al. (British Journal of Pharmacology, 1999, no. 128, p. 1554-60). That is, under light ether anesthesia, silicon beads (3 mm in diameter) were inserted in a length of 3 cm into the rectum side from the anus part using a silicon rod. After waking, the silicon rod was immediately removed to carry out CFS loading. The CFS loading starting time and silicon beads discharging time were recorded, and the measurement finishing time was set to 90 minutes in CFS group and 8 hours in normal group after the starting of the measurement. The distal large intestine transport ability (mm/min) was calculated as 30 mm÷required beads discharge time (min).

Assay [5] deals with conditioned fear stressed animal model. The following applies: cited from earlier work; for freezing behavior: reported in the literature (Non-patent References 4-7).

For `Cc1nccn1C[C@H]1CCc2c(c3cccc4c3n2CCC4)C1=O` [Cilansetron hydrochloride, cilansetron hydrochloride], the “ED50 value of the controlling ratio of wet feces weights increased by CFS loading” value in assay [1] was 0.094 mg/kg. Besides, the “influence upon CFS-induced freezing behavior” value in assay [2] is listed as “did not exert influence”. Moreover, the “proximal large intestine transport rate increased by the CFS loading” value in assay [3] (0.3 mg/kg oral) was “lowered”. Also, the “Distal large intestine transport ability” value in assay [4] (dose 0.3 mg/kg oral) is reported as 5.06** mm/min.

For the compound `CN1C(=O)CN=C(c2ccccc2)c2cc(Cl)ccc21` [diazepam], in assay [5], the freezing behavior entry was “suppressed”.

Turning to `Cc1ncc2n1-c1ccc(Cl)cc1C(c1ccccc1F)=NC2` [midazolam], the freezing behavior entry in assay [5] is “suppressed”.

In the case of `CNCCC(Oc1ccc(C(F)(F)F)cc1)c1ccccc1` (centres unmarked) [fluoxetine], in assay [5], the freezing behavior result is “suppressed”. Also, the bowel movement entry in assay [5] (reported in the literature (Non-patent References 5-7)) is reported as “suppressed”.

With `Cc1[nH]cnc1CN1CCc2c(c3ccccc3n2C)C1=O` [Alosetron hydrochloride, alosetron hydrochloride], in assay [1], the “ED50 value of the controlling ratio of wet feces weights increased by CFS loading” value is listed as 0.078 mg/kg. The “influence upon CFS-induced freezing behavior” value in assay [2] is recorded as “did not exert influence”. In addition, the “proximal large intestine transport rate increased by the CFS loading” value in assay [3] (0.3 mg/kg oral) was “lowered”. Further, in assay [4] (dose 0.3 mg/kg oral), the “Distal large intestine transport ability” value is given as 5.04* mm/min.

Take `CN(C)C(=O)C(CCN1CCC(O)(c2ccc(Cl)cc2)CC1)(c1ccccc1)c1ccccc1` [Loperamide hydrochloride, loperamide hydrochloride]: in assay [1], the “ED50 value of the controlling ratio of wet feces weights increased by CFS loading” value is 9.000 mg/kg. For the same compound, the “freezing behavior-expressing time of 20 to 29 minutes after CFS loading (Block 3)” value in assay [2] (action significant at a dose of 30 mg/kg) is listed as “dose-dependently prolonged”. Further, the “proximal large intestine transport rate increased by the CFS loading” value in assay [3] (10 mg/kg oral) is “lowered”. Besides, the “Distal large intestine transport ability” value in assay [4] (dose 10 mg/kg oral) is listed as 3.64** mm/min.

As to `Cn1cc(C(=O)[C@@H]2CCc3nc[nH]c3C2)c2ccccc21` [Ramosetron hydrochloride, ramosetron hydrochloride], the “ED50 value of the controlling ratio of wet feces weights increased by CFS loading” value in assay [1] is given as 0.012 mg/kg. Moreover, in assay [2], the “influence upon CFS-induced freezing behavior” value is given as “did not exert influence”. Besides, the “proximal large intestine transport rate increased by the CFS loading” value in assay [3] (0.1 mg/kg oral) is “lowered”. In addition, in assay [4] (dose 0.1 mg/kg oral), the “Distal large intestine transport ability” value was 4.93** mm/min.
